13 molecules from patent US20250304560A1, “MODULATORS OF NLRP3 INFLAMMASOME AND RELATED PRODUCTS AND METHODS” (Neumora Therapeutics, Inc., priority 2022, published 2025) can be followed below.

Like-named read-outs stand apart in the source and are kept apart here.

In one data set the target is NLRP3 inflammasome (Homo sapiens, UniProt Q96P20). Kind of data set: NLRP3 inflammasome activation in THP1 macrophages, IL-1β AlphaLISA.
A further data set addresses T1, hERG channels (Homo sapiens, UniProt Q12809).
T1 construct: host or cells: CHO-hERG cells
Nature of the data set: hERG assay, whole-cell patch-clamp in CHO-hERG cells. It counts as cell-based. Particulars: for IC50: whole-cell patch-clamp, CHO-hERG cells. The procedure:
CHO-hERG cells (Sophion Biosciences (Ballerup, Denmark), subcultured and frozen in WuXi AppTec (Suzhou) Co., Ltd.), stored in liquid nitrogen, were tested and determined to be free from mycoplasma contamination. Cells were not used after the 30th passage. CHO-hERG cells were cultured in a humidified incubator of 5% CO2 (4% to 8%) in air at 37° C. (±2° C.). The cells were recovered with recovery medium (F12 medium with 10% fetal bovine serum), subcultured in complete medium (F12 medium, supplemented with 10% fetal bovine serum, 1% Geneticin® selective antibiotic (G418), 89 μg/mL Hygromycin B (HB)), and the culture medium was switched to recovery medium in the last subculture before patch-clamp experiment.
To determine the compounds' IC50, select compounds (“test articles”) were dissolved into DMSO, and then diluted with ECS to get working solutions. Five concentrations of 0.3, 1, 3, 10, and 30 μM were tested. Two replicate cells for each concentration were tested.
Exponentially growing CHO-hERG cells were collected and suspended in extracellular solution for use. The hERG current was recorded at physiological temperature (33.0° C. to 37.0° C.) using whole-cell patch-clamp techniques. Output signals from the patch-clamp amplifier were digitized and low-pass filtered at 2.9 KHz. The recording was controlled with Patchmaster Pro software. The recording chamber with seeded cells was mounted on an inverted microscope stage. A cell in the recording chamber was randomly selected for testing. The cell was continuously perfused from the perfusion system. A micropipette filled with ICS was used as recording electrode in the manual patch-clamp study. The micropipette was prepared on the day of the patch-clamp experiment using glass capillaries (BF150-117-10, SUTTER INSTRUMENT USA). The pipette resistance (Rp) was within 2 to 5 MΩ with ICS filled. From the holding potential of-80 mV, the voltage was increased to +60 mV for 850 ms to open the hERG channels. After that, the voltage was decreased to-50 mV for 1275 ms, causing a “rebound” or tail current, the peak tail current was measured and collected for data analysis. Finally, the voltage was decreased to the holding potential (−80 mV). This command voltage protocol was repeated every 15 s continuously during the test article application.
During the initial recording period with vehicle control working solution, the peak tail current amplitude was monitored until it had been stable for at least 3 sweeps. Cells were then perfused with test article/positive control working solutions until the peak tail current amplitude reached steady state. Steady state was considered reached when three consecutive super-imposable peak tail currents were collected. At this point, cells were once again perfused with next concentration of test article. One or more test articles/positive control or different concentrations of the same test article were tested on each cell with vehicle control washout until the current amplitude returned to values at least 80% of those measured before application of test article. […] At least 2 replicate cells for each concentration were tested. […] (Milnes, J. T., et al.)
Seal criteria: When acquiring whole-cell configuration, a holding potential (e.g.,-80 mV) was applied while membrane parameters were collected (Cm, Rm and Rs). A “good” whole-cell recording was generally defined as: series resistance (Rs) was less than 10 MΩ; membrane resistance (Rm) was more than 500 MΩ and membrane capacitance (Cm) was less than 100 pF. Current amplitude: The peak current amplitude must be between 400 pA and 5000 pA before the test article/positive control application; otherwise the cell was discarded. Leak criteria: At-80 mV holding potential, the absolute leak current value must be less than 200 pA. The amplitude of current was adjusted with leak current at-80 mV. The sweeps which absolute leak current value was more than 200 pA was not used in data analysis.

Another data set concerns IL-6. Kind of data set: IL-6 AlphaLISA in LPS-primed THP1 macrophages. Particulars: for IC50: Homo sapiens.
Setting [1] is: IL-1β Activity, THP1 macrophages, Table 11 comparison.
Where [2] appears, read: THP-1, read-out: IL-6 Activity, LPS-primed THP1 macrophages, Table 11 comparison.
Setting [3] is: IL-1β Activity (nM), THP1 macrophages, PMA, LPS priming, nigericin 6.7 uM activation.
Setting [4] is: THP-1, read-out: IL-6 Activity (μM), THP1 macrophages, PMA, LPS priming, nigericin 6.7 uM.

Chain of NLRP3 inflammasome (Q96P20 whole entry): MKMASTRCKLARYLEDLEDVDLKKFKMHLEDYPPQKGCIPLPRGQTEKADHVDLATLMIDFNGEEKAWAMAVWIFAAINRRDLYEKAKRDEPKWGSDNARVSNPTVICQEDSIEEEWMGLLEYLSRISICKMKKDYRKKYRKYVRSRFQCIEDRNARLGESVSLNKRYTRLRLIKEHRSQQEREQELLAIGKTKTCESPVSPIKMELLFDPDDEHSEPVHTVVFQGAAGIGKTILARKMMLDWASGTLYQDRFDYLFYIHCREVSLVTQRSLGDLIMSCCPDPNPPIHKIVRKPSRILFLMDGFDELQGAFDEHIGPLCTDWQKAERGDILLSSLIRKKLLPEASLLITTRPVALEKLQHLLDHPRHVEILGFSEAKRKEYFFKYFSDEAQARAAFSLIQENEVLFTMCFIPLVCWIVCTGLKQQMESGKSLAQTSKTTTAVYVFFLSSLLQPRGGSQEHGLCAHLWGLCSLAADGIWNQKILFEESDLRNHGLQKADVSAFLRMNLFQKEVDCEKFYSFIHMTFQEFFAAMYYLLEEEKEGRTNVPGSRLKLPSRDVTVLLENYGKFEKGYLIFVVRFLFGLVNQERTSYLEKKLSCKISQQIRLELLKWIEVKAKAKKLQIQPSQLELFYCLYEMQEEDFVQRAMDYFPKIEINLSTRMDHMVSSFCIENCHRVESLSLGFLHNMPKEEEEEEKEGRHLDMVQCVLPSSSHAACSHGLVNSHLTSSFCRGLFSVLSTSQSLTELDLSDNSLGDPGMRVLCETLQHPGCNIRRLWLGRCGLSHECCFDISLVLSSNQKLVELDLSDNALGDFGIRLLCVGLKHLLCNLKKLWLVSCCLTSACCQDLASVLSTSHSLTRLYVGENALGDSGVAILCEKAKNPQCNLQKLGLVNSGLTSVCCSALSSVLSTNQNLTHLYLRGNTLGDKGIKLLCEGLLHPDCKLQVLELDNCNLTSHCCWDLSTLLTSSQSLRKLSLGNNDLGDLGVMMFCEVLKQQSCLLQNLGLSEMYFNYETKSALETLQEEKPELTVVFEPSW
T1 sequence (Q12809 whole entry): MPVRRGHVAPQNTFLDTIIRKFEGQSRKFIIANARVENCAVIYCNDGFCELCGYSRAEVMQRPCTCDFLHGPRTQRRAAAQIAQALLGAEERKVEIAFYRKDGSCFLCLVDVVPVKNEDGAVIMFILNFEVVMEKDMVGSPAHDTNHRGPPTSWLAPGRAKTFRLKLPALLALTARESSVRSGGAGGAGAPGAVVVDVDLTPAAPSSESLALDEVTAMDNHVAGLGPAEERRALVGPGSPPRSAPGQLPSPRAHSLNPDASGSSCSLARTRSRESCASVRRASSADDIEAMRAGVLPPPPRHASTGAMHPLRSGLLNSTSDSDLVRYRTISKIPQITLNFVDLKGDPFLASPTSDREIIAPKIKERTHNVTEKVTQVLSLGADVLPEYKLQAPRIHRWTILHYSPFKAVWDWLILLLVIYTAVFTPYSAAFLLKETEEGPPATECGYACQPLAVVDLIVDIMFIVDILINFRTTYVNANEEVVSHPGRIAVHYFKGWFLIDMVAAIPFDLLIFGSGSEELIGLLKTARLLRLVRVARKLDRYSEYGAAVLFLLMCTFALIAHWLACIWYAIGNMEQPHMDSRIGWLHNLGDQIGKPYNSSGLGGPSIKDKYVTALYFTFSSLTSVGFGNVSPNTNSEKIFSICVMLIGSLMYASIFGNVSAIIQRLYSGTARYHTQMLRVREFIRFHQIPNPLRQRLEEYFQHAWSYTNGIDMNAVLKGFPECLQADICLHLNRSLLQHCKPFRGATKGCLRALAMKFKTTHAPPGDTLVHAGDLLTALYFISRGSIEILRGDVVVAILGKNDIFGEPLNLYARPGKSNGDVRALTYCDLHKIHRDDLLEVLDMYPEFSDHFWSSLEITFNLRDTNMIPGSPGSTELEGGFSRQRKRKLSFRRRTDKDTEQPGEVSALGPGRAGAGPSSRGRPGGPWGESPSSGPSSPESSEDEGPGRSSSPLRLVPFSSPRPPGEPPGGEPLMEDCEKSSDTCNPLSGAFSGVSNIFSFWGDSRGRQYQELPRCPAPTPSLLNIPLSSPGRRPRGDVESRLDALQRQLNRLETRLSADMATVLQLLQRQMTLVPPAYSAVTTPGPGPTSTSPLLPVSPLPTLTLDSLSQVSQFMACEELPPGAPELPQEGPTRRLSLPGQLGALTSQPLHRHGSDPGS

In the case of `Cc1ccc(-c2nnc(N[C@@H]3CCCN(C)C3)cc2C)c(O)c1` [C, reference compound], the “IL-1ß activity (in words)” value on NLRP3 inflammasome was “potent”. Further, the IC50 is less than 1 nM on NLRP3 inflammasome (setting [1]), 10 to 20 µM against hERG channels (Table 11 comparison) and more than 10 µM with IL-6 (setting [2]). Moreover, the “hERG inhibition (in words)” value on hERG channels is “high”.

In the case of `Cc1cc(F)cc(O)c1-c1ccc(N(C)[C@@H]2CCCN(C)C2)nn1` [compound 22], the “IL-1ß activity (in words)” value on NLRP3 inflammasome is recorded as “potent”. Moreover, the IC50 on NLRP3 inflammasome (setting [3]) was 10 to 100 nM; on NLRP3 inflammasome (setting [1]), 10 to 100 nM; against hERG channels (33.0-37.0 °C, Table 10), more than 30 µM; against hERG channels (Table 11 comparison) it was more than 30 µM; in the data set with IL-6 (setting [4]), more than 10 µM; in the data set with IL-6 (setting [2]) it was more than 10 µM. Moreover, the “hERG inhibition (in words)” value at hERG channels was “unexpectedly low”. Moreover, the “IL-6 activity (in words)” value in the data set with IL-6 is listed as “potent”.

Turning to `Cc1cc(N[C@@H]2CCCN(C)C2)nnc1-c1ccc(C#N)cc1O` [compound 51], the “IL-1ß activity (in words)” value at NLRP3 inflammasome is listed as “potent”. Moreover, the IC50 is less than 1 nM on NLRP3 inflammasome (setting [3]); less than 1 nM against NLRP3 inflammasome (setting [1]); more than 30 µM on hERG channels (33.0-37.0 °C, Table 10); more than 30 µM on hERG channels (Table 11 comparison); 5 to 10 µM with IL-6 (setting [4]); 5 to 10 µM in the data set with IL-6 (setting [2]). The “hERG inhibition (in words)” value at hERG channels is on record as “unexpectedly low”. The “IL-6 activity (in words)” value in the data set on IL-6 was “potent”.

For the molecule `Cc1cc(N[C@@H]2CCCN(C)C2)nnc1-c1ccc(OC(F)(F)F)cc1O` [B, reference compound], at NLRP3 inflammasome, the “IL-1ß activity (in words)” value is on record as “potent”. Further, the “hERG inhibition (in words)” value on hERG channels is on record as “high”. The IC50 against hERG channels (Table 11 comparison) was 1 to 3 µM; in the data set on IL-6 (setting [2]) it was more than 10 µM.

Regarding `Cc1cc(O[C@@H]2CCCN(C)C2)nnc1-c1ccc(F)cc1O` [compound 34], the IC50 against NLRP3 inflammasome was 10 to 100 nM; against hERG channels (33.0-37.0 °C, Table 10) it was more than 30 µM; in the data set on IL-6 (THP-1, read-out: IL-6 Activity (μM)), more than 10 µM.

Consider `Cc1cc(N[C@@H]2CCCN(C)C2)nnc1-c1ccc(C(F)(F)F)cc1O` [A, reference compound], for which the “hERG inhibition (in words)” value on hERG channels was “high”. In addition, the IC50 was not above 1 µM at hERG channels (Table 11 comparison) and more than 10 µM in the data set on IL-6 (setting [2]).

Take `Cc1cc(N[C@@H]2CCCN(C)C2)nnc1-c1cccc(C)c1O` [compound 67]: the IC50 on NLRP3 inflammasome (setting [3]) is less than 1 nM; against hERG channels (33.0-37.0 °C, Table 10), 10 to 20 µM; in the data set with IL-6 (setting [4]), 5 to 10 µM.

Regarding `Cc1cc(N[C@@H]2CCCN(C)C2)nnc1-c1ccc(F)cc1O` [compound 1], the IC50 is 1 to 10 nM at NLRP3 inflammasome (setting [3]); 20 to 30 µM against hERG channels (33.0-37.0 °C, Table 10); less than 1 µM in the data set on IL-6 (setting [4]).

Regarding `Cc1cc(N[C@@H]2CCCN(C)C2)nnc1-c1ccccc1O` [compound 2, 2-[4-methyl-6-[[(3R)-1-methyl-3-piperidyl]amino]pyridazin-3-yl]phenol], the “IL-1ß activity (in words)” value at NLRP3 inflammasome is recorded as “potent”. Moreover, the IC50 against NLRP3 inflammasome (setting [3]) is 1 to 10 nM; against NLRP3 inflammasome (setting [1]), 1 to 10 nM; against hERG channels (33.0-37.0 °C, Table 10) it was more than 30 µM; against hERG channels (Table 11 comparison), more than 30 µM; in the data set with IL-6 (setting [4]), 5 to 10 µM; with IL-6 (setting [2]) it was 5 to 10 µM. Further, the “hERG inhibition (in words)” value at hERG channels is “unexpectedly low”. In addition, the “IL-6 activity (in words)” value with IL-6 is reported as “potent”.

`Cc1cccc(O)c1-c1ccc(N[C@@H]2CCCN(C)C2)nn1` [compound 7]: the IC50 on NLRP3 inflammasome (setting [3]) was 1 to 10 nM; on hERG channels (33.0-37.0 °C, Table 10) it was more than 30 µM; in the data set on IL-6 (setting [4]), 1 to 5 µM.

For `Cc1cccc(O)c1-c1ccc(N(C)[C@@H]2CCCN(C)C2)nn1` [compound 21, (R)-3-methyl-2-(6-(methyl (1-methylpiperidin-3-yl)amino)pyridazin-3-yl) phenol], the “IL-1ß activity (in words)” value on NLRP3 inflammasome was “potent”. Also, the IC50 at NLRP3 inflammasome (setting [3]) is 10 to 100 nM; against NLRP3 inflammasome (setting [1]), 10 to 100 nM; against hERG channels (33.0-37.0 °C, Table 10), more than 30 µM; against hERG channels (Table 11 comparison), more than 30 µM; in the data set with IL-6 (setting [4]), 5 to 10 µM; in the data set with IL-6 (setting [2]), 5 to 10 µM. In addition, at hERG channels, the “hERG inhibition (in words)” value is recorded as “unexpectedly low”. Also, the “IL-6 activity (in words)” value in the data set with IL-6 is listed as “potent”.

In the case of `Cc1cc(N[C@@H]2CCCN(C)C2)nnc1-c1ccc(Cl)cc1O` [D, reference compound], the “IL-1ß activity (in words)” value at NLRP3 inflammasome is “potent”. Besides, at hERG channels, the “hERG inhibition (in words)” value is on record as “high”. Moreover, the IC50 against hERG channels (Table 11 comparison) was 3 to 10 µM; with IL-6 (setting [2]) it was more than 10 µM.

For `Cc1cc(N[C@@H]2CCCN(C)C2)nnc1-c1ccc(C2CC2)cc1O` [compound 3], the “hERG inhibition (in words)” value on hERG channels is reported as “high”. For the same molecule, the IC50 against hERG channels (33.0-37.0 °C, Table 10) lay within 3 to 10 µM; on hERG channels (Table 11 comparison), 3 to 10 µM; in the data set with IL-6 (setting [4]), 5 to 10 µM; in the data set on IL-6 (setting [2]), 5 to 10 µM.
